From US9535057B2, “Method of in vivo screening for cardiac toxic agents using teleost” (CITY UNIVERSITY OF HONG KONG, priority 2007, dated 2017) come the findings set out here.

The structures appear in SMILES notation.

For this series, the system named is zebrafish embryos. Description: Cardiotoxicity screen in zebrafish embryos: heart rate and heart beat rhythm from video of blood circulation with power spectral analysis, and by direct examination of heart. The note with it: 48-hpf zebrafish embryos, 2 μM haloperidol in egg medium, 4 hour incubation; direct examination of heart and power spectral analysis (FIG. 7); p<0.05 vs control. The format is in vivo.

Source text: Before videoing blood cell circulation, the teleost is immobilized on a surface, for example, glass slide or plastic petri dish. Immobilization medium can be agarose, agar or methyl-cellulose. The optimal concentration of agarose or agar used is 0.5% (w/v) or lower. The concentration of methyl-cellulose used is 2-4% (w/v). Teleosts should be oriented in their spontaneous lateral position.
A video imaging system consists of a microscope, either stereomicroscope or conventional light microscope, with low magnification objective (FIG. 1). […] Video recorded in medium, e.g. VCR tape or mini DV tape, or recorded in personal computer is converted back to readable format, such as AVI or WMV format, and stored in personal computer for further video image analysis. […]
Data analysis of the series of the amount of differential pixels obtained from video image analysis is performed by methods implemented in the home-made software. Data series of amount of differential pixels is analyzed by comprising power spectral analysis in which data series of differential pixels is decomposed by discrete Fourier transform. […] A total power value of the spectrum is calculated. […]
The embodiment is tested in wild type embryos at 52 hpf. […] Heart rate is determined from direct visual counting of the number of heart beats in 1 min. […] In addition, the cardiac rhythm is determined as the standard deviation of heart beat time interval. […]

For the compound `O=C(CCCN1CCC(O)(c2ccc(Cl)cc2)CC1)c1ccc(F)cc1` [haloperidol], the heart rate entry is on record as “significantly decreased”.
